In patent US5326788A, “Biological fluid purification system” (priority 1992, dated 1994):

Experiments:
HIV-2 = test: Syncytia assay, HUT78 cells infected with ROD-2 isolate co-cultured with H9 cells; assay type: cell-based; conditions: 24 hours
Protocol: (§1) In order to assess the effects of Hy and Ps on the ability of HIV to form syncytia, the following experiments were performed. For the analysis of HIV-1, an entry syncytia assay was performed by co-culturing H9 cells (described in Popovic, M. et al. Science 224: 497-500, 1984) infected with the IIIb isolate of HIV with uninfected Supt-1 cells (Walker, B. D. et al. Proc. Nat. Acad. Sci. (USA) 84: 8120-8124, 1987) as the target cell. HIV-2 was tested using HUT78 cells (obtained from the National Institute of Health by reference to Depository Catalog, Reagent Program, Bethesda, Md.) infected with the ROD-2 isolate of HIV-2 co-cultured with uninfected H9 target cells. The infected cells were plated in 96 well plates (10^4 cells per well in RPM1 1640 medium with 10% fetal calf serum) and incubated with or without dilutions of Ps or Hy for 30 minutes at 37° C. 1×10^5 target cells were then added per well and the number of syncytia were quantitatively and qualitatively determined after 24 hours.

HIV-1 env = test: Syncytia assay, cell line expressing only envelope proteins of HIV-1 IIIb with Supt-1 cells; assay type: cell-based; conditions: for syncytia score (number 0-4, size S/M/L): 24 hours
Protocol: as §1
Also tested in a syncytia assay was a constructed cell line expressing only the envelope proteins of HIV-1 type IIIb isolate (Walker, B. D. et al., supra). These cells, designated HIV-1 env in Table 6, were treated with the indicated concentrations of Ps or Hy and incubated with uninfected Supt-1 target cells as above.

[1] = Toxicity of hypericin administered to mice; assay type: in vivo
Protocol: In general, up to 100 mg and preferably between 1 mg and about 10 mg of the antiviral compounds may be employed to completely eliminate the infectivity properties of human retroviruses such as HIV in one unit of whole blood. Intravenous transfusion or administration of blood containing this level of hypericin for example should pose no serious toxicity or tolerance threat to human recipients of such transfused blood. […] This correlates with a dose of approximately 25 mg i.v. in man, or twenty times the dose that would be received from a transfusion of 1 unit of whole blood containing 2.5 micrograms/ml hypericin. In addition, i.e. administration of 1.2 mg of hypericin in phosphate buffered saline (PBS) containing 10% ethanol to a mouse was not lethal. (Naturally, it is preferred to use the minimum amount of the antiviral compounds that is effective to terminate the infectivity of the target virus in a given biological fluid. The minimum effective amount required for abolishing infectivity of a particular viral species suspected to be present in a biological fluid can be easily determined through the exercise of routine experimentation.)

HIV = test: Inactivation of HIV from blood of sero-positive patient, reverse transcriptase activity after culture with H9 cells; assay type: cell-based, Human Immunodeficiency Virus (HIV)
Protocol: In order to show the effectiveness of the compounds of the present invention in the inactivation of HIV, blood was obtained from an HIV sero-positive patient and treated with hypericin and pseudohypericin at various concentrations for 1 hour at 37° C. and incubated with uninfected H9 cells in culture. Thereafter, reverse transcriptase enzymatic activity was determined as disclosed in U.S. patent application Ser. Nos. 084,008 and 172,064 filed Aug. 10, 1987 and Mar. 23, 1988, respectively.
In FIG. 1, open squares represent hypericin-treated and pluses represent pseudohypericin treated HIV. […] Inactivation of the reverse transcriptase activity of the virions was not a result of a direct inhibition of reverse transcriptase activity per se, as incubation of either compound directly with purified reverse transcriptase from either avian myeloblastosis virus or murine leukemia virus had no effect on enzyme activity. Furthermore, aliquots of HIV derived from these H9 cell cultures lost the ability to replicate in culture when exposed to as little as 0.77 micrograms/ml of hypericin.

Radiation Leukemia Virus = test: Inhibition of virus budding from infected AQR cells, reverse transcriptase assay; assay type: cell-based, Radiation Leukemia Virus in AQR (murine leukemia) cells; conditions: 1 hour incubation, supernatant after 24 hours; read-out: concentration completely inhibiting virus budding
Protocol: AQR (murine leukemia) cells producing Radiation Leukemia Virus (prepared as described in Meruelo, D., J. Exp. Med. 149: 898-909, 1979; and Bach, R. G. et al., J. Exp. Med. 160: 270-285, 1984) were incubated for 1 hour with various concentrations of synthetic hypericin (micrograms/ml shown in FIG. 3). The cells were then washed four times with phosphate buffer saline and incubated in fresh culture medium for 24 or 48 hours. Supernatants were then collected, pelleted (at 1000×g) for 15 minutes to remove whole cells and then repelleted at 100,000×g for 1 hour to collect virus particles. The second pellet was used for a reverse transcriptase assay, conducted as described in U.S. application Ser. No. 084,008 (Aug. 10, 1987) and 172,064 (Mar. 23, 1988).
The results of the reverse transcriptase assay are plotted in FIG. 3. […] Thus, the minimum incubation period that would destroy the ability of HIV-infected cells to participate in propagation of the HIV infection is likely to be much smaller than the 24 hours employed as the minimum waiting period in this assay.

Cc1cc(O)c2c(=O)c3c(O)cc(O)c4c5c(O)cc(O)c6c(=O)c7c(O)cc(C)c8c1c2c(c34)c(c78)c65 [hypericin]
syncytia score (number 0-4, size S/M/L) (HIV-2; 7 nanograms): 4 L | syncytia score (number 0-4, size S/M/L) (HIV-2; 14 nanograms): 4 L | syncytia score (number 0-4, size S/M/L) (HIV-2; 28 nanograms): 4 L | syncytia score (number 0-4, size S/M/L) (HIV-2; 56 nanograms): 3 M | syncytia score (number 0-4, size S/M/L) (HIV-2; 112 nanograms): 1S | syncytia score (number 0-4, size S/M/L) (HIV-2; 225 nanograms): 0 | syncytia score (number 0-4, size S/M/L) (HIV-2; 450 nanograms): 0 | syncytia score (number 0-4, size S/M/L) (HIV-2; 900 nanograms): 0 | syncytia score (number 0-4, size S/M/L) (HIV-2; 1800 nanograms): 0 | syncytia score (number 0-4, size S/M/L) (HIV-1 env; 7 nanograms): 4 L | syncytia score (number 0-4, size S/M/L) (HIV-1 env; 14 nanograms): 4 L | syncytia score (number 0-4, size S/M/L) (HIV-1 env; 28 nanograms): 4 L | syncytia score (number 0-4, size S/M/L) (HIV-1 env; 56 nanograms): 4 L | syncytia score (number 0-4, size S/M/L) (HIV-1 env; 112 nanograms): 3 M | syncytia score (number 0-4, size S/M/L) (HIV-1 env; 225 nanograms): 0 | syncytia score (number 0-4, size S/M/L) (HIV-1 env; 450 nanograms): 0 | syncytia score (number 0-4, size S/M/L) (HIV-1 env; 900 nanograms): 0 | syncytia score (number 0-4, size S/M/L) (HIV-1 env; 1800 nanograms): 0 | inhibition of the viral entry process (comparison) (HIV-1 env; HIV-1 env cells and live virus assays): more effective than pseudohypericin | corresponding dose in man ([1]; i.v., extrapolated from 100 micrograms per mouse): approximately 25 mg | toxic side effects ([1]; mice, intravenous, 100 micrograms per mouse): not exhibited any toxic side effects | lethality ([1]; mouse, 1.2 mg in PBS containing 10% ethanol): not lethal | concentration giving complete inactivation of HIV (no reverse transcriptase detected) (HIV; 1 hour at 37° C., H9 cells): 2.5 micrograms/ml | IC100 (HIV; Human immunodeficiency virus 1, H9, 1 h, read-out: concentration giving complete inactivation of HIV (no reverse transcriptase detected), 1 hour at 37° C., H9 cells): > 2.5 µg/mL | IC100 (Radiation Leukemia Virus): 10 µg/mL
